The values that follow come from patent US20100323979A1, “METHODS AND COMPOSITIONS FOR INHIBITING PROLIFERATION OF ANEUPLOID CELLS” (priority 2009, published 2010).

The test system of test [1] is trisomic primary MEF cells. The test is described as follows: Cell proliferation assay, trisomic MEFs. The test is classed as cell-based, mouse. The settings on record: for sensitivity in relation to size of the additional chromosome: trisomy 1 versus trisomy 16 or 19. The procedure: MEF cells were cultured in DMEM supplemented with 10% FBS, 2 mM glutamine, 50 U/ml penicillin, and 50 U/ml streptomycin. […] Lymphoma cells were cultured in IMDM supplemented with 10% FBS, 2 mM glutamine, 50U/ml penicillin, 50 U/ml streptomycin and […] beta-mercaptoethanol. All cells were cultured at 37° C. with 5% CO2 in a humidified environment. In all experiments, cells were counted using a Cellometer Auto T4 automated hemacytometer (Nexcelom). […] After infection with shRNA constructs, GFP+FACS sorted cells were plated at a density of 5×10^5 cells/well in 6-well plates. Cells were treated with AICAR at various concentrations or solvent control then counted at indicated time point.

In test [2] the test system is Eμ-Myc;Arf−/− lymphoma cells. The test is described as follows: Cell proliferation assay, euploid lymphoma cells. It counts as cell-based. The settings on record: various concentrations, 24 h, FIG. 2A. The procedure:
(§1) All euploid (WT) and aneuploid (Ts) mouse embryonic fibroblast (MEF) lines were established as previously described (Williams, B. R. et al., 2008). MEF cells were cultured in DMEM supplemented with 10% FBS, 2 mM glutamine, 50 U/ml penicillin, and 50 U/ml streptomycin. Eμ-Myc;Arf−/− and Eμ-Myc;p53−/− lymphoma cells were established as previously described (Wendel, H. et al., 2006). Lymphoma cells were cultured in IMDM supplemented with 10% FBS, 2 mM glutamine, 50U/ml penicillin, 50 U/ml streptomycin and […] beta-mercaptoethanol. All cells were cultured at 37° C. with 5% CO2 in a humidified environment. In all experiments, cells were counted using a Cellometer Auto T4 automated hemacytometer (Nexcelom).
(§2) Exponentially growing early passage MEFs were plated at a density of 2×10^5 cells/well in 6-well plates and lymphoma cells were cultured and infected as described previously (Hemann, M. T. et al., 2003). After infection with shRNA constructs, GFP+FACS sorted cells were plated at a density of 5×10^5 cells/well in 6-well plates. Cells were treated with AICAR at various concentrations or solvent control then counted at indicated time point.

In test [3] the test system is autophagy (LC3, BNIP3) in trisomy 13 and 16 MEFs. The test is described as follows: Autophagy markers in trisomic MEFs (LC3 immunoblot, RT-qPCR, GFP-LC3 puncta). It counts as cell-based, mouse. The procedure:
(§3) Western blotting was performed as previously described (Dickins, R. A. et al., 2005). Proteins were detected by using the following antibodies: anti-AMPKα (Cell signaling technology), anti-Hsp70 (Stressgen), and anti-β actin (Sigma). Secondary antibodies were horseradish peroxidase-conjugated anti-mouse or anti-rabbit IgG (GE Healthcare; 1:5,000).
For GFP-LC3 fluorescence imaging, wild-type GFP-LC3 and trisomic GFP-LC3 MEF cells were exposed to the indicated drug treatments in phenol red-free DMEM. All fluorescence images were acquired using a Nikon digital sight DS-Qil MC camera on a Nikon Eclipse Ti inverted microscope. All single plane images were acquired and processed using the NIS-Element AR 3.0 software.
Total RNA from MEFs was isolated using the RNeasy Mini Kit (Qiagen) according to the manufacturer's instructions. 1μg RNA was used to generate cDNAs using RETROscript kit (Ambion). qPCR was performed by mixing iQ SYBR Green Supermix (Bio-Rad) with the primers described in Table S2, and amplified using a LightCycler 480 II (Roche). The LightCycler software was used to evaluate gene expression level and normalized to a ribosomal reference gene, rpl19.
Background: A western blot detects proteins with antibodies after separation by electrophoresis.

The test system of test [4] is Eμ-Myc;p53−/− lymphoma cells. Kind of test: Cell proliferation assay, aneuploid lymphoma cells. The test is classed as cell-based. The procedure:
as §1
AMPK-specific shRNA constructs were generated as described previously (Silva, J. M. et al., 2005). Targeting sequences were selected based on BIOPREDsi design (Huesken, D, et al., 2005).
as §2

Test [5] concerns inducible Hsp70 in trisomic MEFs. Kind of test: Inducible Hsp70 levels by immunoblotting in trisomic MEFs. The test is classed as cell-based, mouse. The settings on record: indicated doses, FIG. 4D. The procedure: as §3

As to `C=CCNC1=C2C[C@@H](C)C[C@H](OC)[C@H](O)[C@@H](C)/C=C(\C)[C@H](OC(N)=O)[C@@H](OC)/C=C\C=C(/C)C(=O)NC(=CC1=O)C2=O` [17-AAG, 17-(Allylamino)-17-demethoxygeldanamycin], the “proliferation of trisomy 1, 13, 16 and 19 cells” value in test [1] (100 nM, cell number after 3 days, FIG. 3A) is recorded as “impaired”. Moreover, the “proliferation of trisomic/aneuploid cells versus wild-type (cell number)” value in test [1] (single agent, cell number after 3 days, FIG. 3A/3B) is on record as “preferentially inhibited”. In addition, in test [1] (FIG. 3A/3B), the “sensitivity in relation to size of the additional chromosome” value was “higher sensitivity”.

On to `NC(=O)c1ncn([C@@H]2O[C@H](CO)[C@@H](O)[C@H]2O)c1N` [AICAR, 5-aminoimidazole-4-carboxamide riboside], for which, in test [2], the “sensitivity of euploid immortalized B-cells (cell count relative to control)” value is given as “not sensitive”. Moreover, the “sensitivity of MEFs carrying trisomies (cell count relative to non-treated control)” value in test [1] (trisomic for chromosome 1, 13, 16 or 19, 0-0.5 mM, 72 or 144 h, FIG. 1) is recorded as “sensitive”. For the same molecule, the “LC3 incorporation into autophagosomes” value in test [3] (24 hours after treatment, LC3-GFP puncta, FIG. 4A-4C) was “further induced”. Further, the LC3 expression entry in test [3] (FIG. 4A-4B) is “further induced”. The Bnip3 expression entry in test [3] (RT-qPCR normalized to rpl19, FIG. 4B) is given as “further induced”. The “proliferation after knock-down of AMPK” value in test [4] (Eμ-Myc;p53−/− infected with AMPK-specific shRNA, FIG. 2B) was “proliferate the same in the presence and absence of AICAR”. Further, the “sensitivity of aneuploid B cells (cell count relative to control)” value in test [4] (Eμ-Myc;p53−/−, various concentrations, 24 h, FIG. 2A) was “sensitive”. The “Hsp70 activity (levels of inducible Hsp70)” value in test [5] is listed as “further increase”.

On to `CCN(CC)CCCC(C)Nc1ccnc2cc(Cl)ccc12` (stereo not drawn) [chloroquine], for which the “sensitivity in relation to size of the additional chromosome” value in test [1] (FIG. 3A/3B) is listed as “correlated with the size of the additional chromosome”.
